Read-outs that look alike come from different tables or passages of the source. One block for each molecule: values may come before it.
Tests used:
[1] = tested on: HGC-27 subcutaneous xenografts; experiment: HGC-27 gastric cancer xenograft model, treatment from day 20 for 14 days (Example 2); format: in vivo, mice
From the text: The procedure described in Example 1 is followed with the following modifications: Treatments are initiated on day 20 following tumor cell implantation of 5 million HCG-27 cells, when the average tumor volume is 316 mm^3 (164-485 mm^3).

[2] = tested on: NCI-N87 tumors (human gastric carcinoma cells); experiment: NCI-N87 gastric cancer xenograft model, first experiment (Example 3); format: in vivo, mice
Experimental: Cells are harvested with trypsin (0.25% w/v)-EDTA (0.53 mM), are re-suspended in culture medium (with additives) and are counted with a Casy® system. Cell culture reagents are purchased from BioConcept (Allschwil, Switzerland). NCI-N87 tumors are established by injecting […] to 1×10^7 cells (in HBSS containing 50% v/v Matrigel) subcutaneously with a 23 Gauge needle. When tumors are established and reach between 180 and 210 mm^3, animals are randomized into treatment groups and the treatments are initiated. Compound A is formulated in NMP/PEG300/Solutol HS15/water (10:30:20:40% vol/vol) The compound is fully dissolved in NMP first and water is added immediately prior to administration to animals. […] All doses of AUY922 refer to the free base equivalent. AUY922 is administered iv at a volume of 10 ml/kg, twice a week. […] Pairwise comparisons are done using a one way ANOVA followed by Tukey's test. The level of significance of body weight change within a group between start and end of the treatment period is determined using a paired t-test. […] Calculations are performed using GraphPad Prism 4 for windows (GraphPad Software Inc.). In addition, an approximation of drug interactions is made using the method described by Clarke R., “Issues in experimental design and endpoint analysis in the study of experimental cytotoxic agents in vivo in breast cancer and other models”, Breast Cancer Res. Treat, 46, 255-78 (1997). This is applied to MV (Tumor volume). Female athymic nude mice are treated orally once a day with 50 mg/kg Compound A, alone or in combination with 50 mg/kg of AUY922 administered intravenously twice a week. […] For compound A, B or the combination AB (with Vehicle Control group C), antagonism is predicted when the calculation AB/C>A/C×B/C, additive effect: AB/C=A/C×B/C, synergistic interactions are predicted to occur when AB/C<[…].

[3] = tested on: NCI-N87 tumors (human gastric carcinoma cells); experiment: NCI-N87 gastric cancer xenograft model, second experiment (Example 3); format: in vivo, mice; conditions: single agent
Experimental: Cells are harvested with trypsin (0.25% w/v)-EDTA (0.53 mM), are re-suspended in culture medium (with additives) and are counted with a Casy® system. Cell culture reagents are purchased from BioConcept (Allschwil, Switzerland). NCI-N87 tumors are established by injecting […] to 1×10^7 cells (in HBSS containing 50% v/v Matrigel) subcutaneously with a 23 Gauge needle. When tumors are established and reach between 180 and 210 mm^3, animals are randomized into treatment groups and the treatments are initiated. Compound A is formulated in NMP/PEG300/Solutol HS15/water (10:30:20:40% vol/vol) The compound is fully dissolved in NMP first and water is added immediately prior to administration to animals. […] All doses of AUY922 refer to the free base equivalent. AUY922 is administered iv at a volume of 10 ml/kg, twice a week. […] Pairwise comparisons are done using a one way ANOVA followed by Tukey's test. The level of significance of body weight change within a group between start and end of the treatment period is determined using a paired t-test. […] Calculations are performed using GraphPad Prism 4 for windows (GraphPad Software Inc.). In addition, an approximation of drug interactions is made using the method described by Clarke R., “Issues in experimental design and endpoint analysis in the study of experimental cytotoxic agents in vivo in breast cancer and other models”, Breast Cancer Res. Treat, 46, 255-78 (1997). This is applied to MV (Tumor volume).

[4] = tested on: NCI-N87 tumors (human gastric carcinoma cells); experiment: NCI-N87 gastric cancer xenograft model, third experiment (Example 3); format: in vivo, mice; conditions: single agent
Experimental: Cells are harvested with trypsin (0.25% w/v)-EDTA (0.53 mM), are re-suspended in culture medium (with additives) and are counted with a Casy® system. Cell culture reagents are purchased from BioConcept (Allschwil, Switzerland). NCI-N87 tumors are established by injecting […] to 1×10^7 cells (in HBSS containing 50% v/v Matrigel) subcutaneously with a 23 Gauge needle. When tumors are established and reach between 180 and 210 mm^3, animals are randomized into treatment groups and the treatments are initiated. Compound A is formulated in NMP/PEG300/Solutol HS15/water (10:30:20:40% vol/vol) The compound is fully dissolved in NMP first and water is added immediately prior to administration to animals. […] All doses of AUY922 refer to the free base equivalent. AUY922 is administered iv at a volume of 10 ml/kg, twice a week. […] Pairwise comparisons are done using a one way ANOVA followed by Tukey's test. The level of significance of body weight change within a group between start and end of the treatment period is determined using a paired t-test. […] Calculations are performed using GraphPad Prism 4 for windows (GraphPad Software Inc.). In addition, an approximation of drug interactions is made using the method described by Clarke R., “Issues in experimental design and endpoint analysis in the study of experimental cytotoxic agents in vivo in breast cancer and other models”, Breast Cancer Res. Treat, 46, 255-78 (1997). This is applied to MV (Tumor volume). In the third efficacy experiment, the tumor model is set up as in the second experiment.

[5] = tested on: KYSE-70 tumors (esophageal squamous cell carcinoma cells); experiment: KYSE-70 esophageal squamous cell carcinoma xenograft model (Example 4); format: in vivo, mice
Experimental: KYSE-70 tumors are established by injecting 7.5×10^6 KYSE-70 cells, which are esophageal squamous cell carcinoma cells, in 100 μl cell suspension, with a 23 gauge needle subcutaneously on the right flank of the mice. Ten (10) days after implantation, […]. When tumors are established and reach about 156 mm^3 (minimum 86 mm^3, maximum 218 mm^3) approximately 10 days after implantation, 48 animals are selected and randomized into 6 treatment groups (n=8). Placebo control is formulated as 10 ml/kg of 250 μl NMP, 750 μl PEG300, 500 μl Solutol HS15, and 1000 μl water for delivery once daily per oral (Placebo 1) and as 10 ml/kg of 2.5 ml Glucose for delivery intravenously twice a week (Placebo 2). Compound A is formulated in NMP/PEG300/Solutol HS15/water (10:30:20:40% vol/vol). The compound is fully dissolved in NMP first and water is added immediately prior to administration to animals. […] All doses of AUY922 refer to the free base equivalent. AUY922 is administered iv at a volume of 10 ml/kg, twice a week.

[6] = Stability of Compound A dosing formulation; format: physicochemical; conditions: room temperature
Experimental: Compound A is formulated in NMP/PEG300/Solutol HS15/water (10:30:20:40% vol/vol) The compound is fully dissolved in NMP first and water is added immediately prior to administration to animals.
Compound A is formulated in NMP/PEG300/Solutol HS15/water (10:30:20:40% vol/vol). The compound is fully dissolved in NMP first and water is added immediately prior to administration to animals.

[7] = tested on: HGC-27 subcutaneous xenografts (human gastric carcinoma cells, PIK3CA mutation, PTEN null); conditions: mouse, in vivo, po
Experimental: (§1) Experiments are performed in female Hsd:Athymic Nude-FoxN1^nu Nude mice approximately 8-12 weeks of age at treatment start.
(§2) HGC-27 cells, which are human gastric carcinoma cells with a PIK3CA mutation (c1624G>A, p.E542K) and PTEN null, are grown in MEM culture medium containing 1% non-essential amino acid with 10% heat-inactivated FCS, and are incubated at 37° C. in a 5% CO2 humidified atmosphere.
(§3) HGC-27 tumors are established in vivo by injection 5×10^6 cells in 200 μl (100 μl PBS+100 μl Matrigel) (Cat #354234, BD Bioscience, Bedford, Mass.) subcutaneous into the right flank of the animals. The efficacy experiments are started when the tumors reach an average size of approximately 230 mm^3 (day 12 post cell injection).
(§4) Compound A is formulated in 0.5% Methylcellulose (MC). 80 mg of Compound A is added to 16 ml of 0.5% MC, then stirred/vortexed and sonicated in water bath sonicator for 1 h to obtain 5 mg/ml homogeneous suspension. 0.5% MC is used to dilute the 5 mg/ml solution to 2.5 mg/ml and 1.25 mg/ml for dosing. Compound A or vehicle is administered orally at a volume of 10 ml/kg.
(§5) Tumor volumes are measured with calipers and determined according to the formula: length×diameter^2×π/6. Antitumor activity is expressed as T/C % which is determined according to the formula: (mean change of tumor volume of treated animals/mean change of tumor volume of control animals)×100. Regressions (%) are calculated according to the formula ((mean tumor volume at end of treatment-mean tumor volume at start of treatment)/mean tumor volume at start of treatment)×100. Body weights and tumor volumes are recorded twice a week.
(§6) Where applicable, data is presented as mean±SEM. For all tests, the level of significance is set at p<0.05. For tumor volumes, comparisons between treatment groups and vehicle control group are done using one-way ANOVA followed by Dunnett's test. Tumor volumes comparisons between treatment groups are done using Kruskal-Wallis one way ANOVA post-hoc Student Newman Kuels test or Dunn's test. In the first experiment, Compound A is orally administered daily to HGC-27 subcutaneous xenografts, tumor-bearing nude mice at a dose of 12.5 mg/kg, 25 mg/kg and 50 mg/kg.

[8] = tested on: HGC-27 subcutaneous xenografts (human gastric carcinoma cells, PIK3CA mutation, PTEN null); experiment: HGC-27 gastric cancer xenograft model in female athymic nude mice (Example 1); conditions: for mean change of tumor volume: mean±SEM
Experimental: as §1, §2, §3, §4, §5, §6

[9] = Compound A 50 mg/kg orally once a day
[10] = Group 2: 12.5 mg/kg Compound A per oral once daily
[11] = Group 3: 50 mg/kg Compound A per oral once daily
[12] = Group 4: 50 mg/kg AUY922 intravenous twice a week
[13] = AUY922 50 mg/kg i.v. twice a week

stability of suspension ([6]; Compound A in NMP/PEG300/Solutol HS15/water (10:30:20:40% vol/vol)): stable for one week
stability of suspension ([6]; Compound A suspension in 0.5% Methylcellulose): stable for one week
Structure (SMILES): Cc1nc(NC(=O)N2CCC[C@H]2C(N)=O)sc1-c1ccnc(C(C)(C)C(F)(F)F)c1 [Compound A, (S)-Pyrrolidine-1,2-dicarboxylic acid 2-amide 1-({4-methyl-5-[2-(2,2,2-trifluoro-1,1-dimethyl-ethyl)-pyridin-4-yl]-thiazol-2-yl}-amide)]
T/C ([1]; Compound A 25 mg/kg q.d. p.o.): 11%
T/C ([1]; Compound A 50 mg/kg q.d. p.o.): 10%
T/C ([2]; Compound A 50 mg/kg orally once a day, single agent): 4.2%
ΔTV Cmpd. A (A) ([2]; Compound A 50 mg/kg orally once a day, change of tumor volume (mm^3)): 1.4
A/C ([2]; ΔTV of Compound A over vehicle control, Clarke method): 0.006
T/C ([3]; Compound A 12.5 mg/kg orally once a day, not statistically significant): 30.3%
mean change of tumor volume (mm^3±SEM) ([3]; Compound A 12.5 mg/kg): 114.9±43.9 mm^3
regressions [3, 9]: 1.2%
mean change of tumor volume (mm^3±SEM) ([3]; Compound A 50 mg/kg): −2.3±15.2 mm^3
T/C ([4]; Compound A 12.5 mg/kg orally once a day): 37.8%
mean change of tumor volume (mm^3±SEM) ([4]; Compound A 12.5 mg/kg): 73.9±17.6 mm^3
regressions [4, 9]: 6.4%
mean change of tumor volume (mm^3±SEM) ([4]; Compound A 50 mg/kg): −13.3±6.7 mm^3
T/C [%] Day 10 [5, 10]: 100.0%
T/C [%] Day 14 [5, 10]: −7.1%
T/C [%] Day 17 [5, 10]: 74.0%
T/C [%] Day 21 [5, 10]: 40.6%
T/C [%] Day 24 [5, 10]: 47.5%
T/C [%] Day 10 [5, 11]: 100.0%
T/C [%] Day 14 [5, 11]: −49.3%
T/C [%] Day 17 [5, 11]: −2.7%
T/C [%] Day 21 [5, 11]: −40.1%
T/C [%] Day 24 [5, 11]: −10.9%
body weight change ([7]; 12.5 mg/kg): 5.3±1.4%
body weight change ([7]; 25 mg/kg): 2.2±1.1%
body weight change ([7]; 50 mg/kg): −1.1±1.6%
T/C % ([8]; Compound A 12.5 mg/kg p.o. once daily, 12 days, day 23): 39.4%
mean change of tumor volume ([8]; Compound A 12.5 mg/kg p.o. once daily): 515±85 mm^3
T/C % ([8]; Compound A 25 mg/kg p.o. once daily, 12 days, day 23): 35.5%
mean change of tumor volume ([8]; Compound A 25 mg/kg p.o. once daily): 465±111 mm^3
T/C % ([8]; Compound A 50 mg/kg p.o. once daily, 12 days, day 23): 7.1%
mean change of tumor volume ([8]; Compound A 50 mg/kg p.o. once daily): 93±77 mm^3

Structure (SMILES): CCNC(=O)c1noc(-c2cc(C(C)C)c(O)cc2O)c1-c1ccc(CN2CCOCC2)cc1 [AUY922, 5-(2,4-Dihydroxy-5-isopropyl-phenyl)-4-(4-morpholin-4-ylmethyl-phenyl)-isoxazole-3-carboxylic acid ethylamide, reference compound]
T/C ([1]; AUY922 50 mg/kg 2q.w. i.v.): 57%
tumor regressions ([2]; AUY922 50 mg/kg i.v. twice a week, single agent): 7%
mean change of tumor volume ([2]; AUY922 50 mg/kg i.v. twice a week, single agent, ±SEM): −15.1±21.4 mm^3
ΔTV AUY922 (B) ([2]; AUY922 50 mg/kg i.v. twice a week, change of tumor volume (mm^3)): −15.1
B/C ([2]; ΔTV of AUY922 over vehicle control, Clarke method): −0.061
T/C ([3]; AUY922 50 mg/kg i.v. twice per week): 4.7%
mean change of tumor volume ([3]; AUY922 50 mg/kg, ±SEM): 17.9±11.0 mm^3
T/C ([4]; AUY922 50 mg/kg): 14%
mean change of tumor volume ([4]; AUY922 50 mg/kg, ±SEM): 27.4±10.2 mm^3
T/C [%] Day 10 [5, 12]: 100.0%
T/C [%] Day 14 [5, 12]: 145.3%
T/C [%] Day 17 [5, 12]: 144.4%
T/C [%] Day 21 [5, 12]: 131.8%
T/C [%] Day 24 [5, 12]: 141.1%
T/C % ([8]; AUY922 50 mg/kg free base i.v. twice a week): 60.5%
body weight change [8, 13]: 6.6±2.6%
mean change of tumor volume [8, 13]: 792.2±159 mm^3

Source: patent publication US20160199365A1, “2-Carboxamide Cycloamino Urea Derivatives in Combination with HSP90 Inhibitors for the Treatment of Proliferative Diseases” (Novartis AG, priority 2011, published 2016)
